Patent US20260226064A1, “POLYCYCLIC COMPOUND FOR TREATING NEUROLOGICAL DISEASES AND TUMORS” (Shanghai Institute of Organic Chemistry, Chinese Academy of …, priority 2023, published 2026)
Like-named read-outs stand apart in the source and are kept apart here.

How the values were obtained:
[1] = tested on: acetylated microtubule in HEK293T cells; assay: Microtubule-Stabilizing Activity Assay (acetylated microtubule immunoblot, HEK293T, colchicine challenge); format: cell-based; conditions: 1 h pre-incubation, then colchicine 1 μM 3 h, relative to CNDR-51657 at 500 nM = 1.00; for Microtubule-Stabilizing Activity 50 nM: compound 50 nM; for Microtubule-Stabilizing Activity 500 nM: compound 500 nM
Description: Compound solvent: 100% dimethyl sulfoxide (DMSO). Cell line: HEK293T (ATCC, CRL3216). Culture conditions: Cells were cultured in Dulbecco's Modified Eagle's Medium (DMEM) containing 10% fetal bovine serum and 1% penicillin/streptomycin. Cells were cultured at 37° C. in a Thermo-Fisher incubator with a humidified atmosphere of 5% carbon dioxide.
One day prior to the experiment, 100,000 cells were seeded at a density of 200,000 cells/ml in a 24-well plate.
On the day of the experiment, 20 μl of PBS phosphate buffer containing the test compound at experimental concentrations or an equivalent volume of DMSO was added to each well. After incubating at 37° C. for 1 hour, colchicine was added to each well at a final concentration of 1 μM, followed by an additional 3-hour incubation at 37° C. The plate was then placed on ice. The medium in each well was removed, and the cells were washed with ice-cold PBS. After aspirating the PBS, 0.1 mL of ice-cold RIPA lysis buffer (containing 0.5% sodium deoxycholate, 0.1% SDS, 1% NP-40, 5 mM EDTA, pH 8.0) was quickly added. Prior to use, a commercial protease inhibitor cocktail (1:500) and 1 μM deacetylase inhibitor Trichostatin A (Sangon Biotech Co., Ltd.) were added to the cell lysis buffer. The cell lysate were transferred to a 1.5 ml centrifuge tube, sonicated, and centrifuged at 13,000 rpm for 10 minutes. The supernatant was collected, and protein concentration was determined using the BCA assay.
Based on existing literature (Black, 1989; Kurt, 2011), acetylated microtubule was used as an indicator of microtubule polymerization to assess the microtubule-stabilizing efficacy of the compounds. HEK293T cell lysates were analyzed by SDS-PAGE (7.5% gel) and immunoblotted using acetylated microtubule antibody (1:20,000, Sigma-Aldrich, T7451) and α-microtubule antibody (1:2,000, Proteintech, 11224-1-AP). After incubation with fluorescent dye-conjugated IgG (1:40,000, Licor), the blots were visualized using an Odyssey-Dlx imaging system. Grayscale analysis was performed using ImageJ.
The compound activity was quantified with the microtubule-stabilizing activity of CNDR-51657 (C5) (Jane, 2016) at 500 nM as 1.00.

[2] = Mouse Oral Pharmacokinetic Study; format: in vivo; conditions: mouse, male CD1 mice, oral gavage 10 mg/kg; for Kp at 4 h: brain/plasma, read-out: Cbrain/Cplasma; for AUC(0-t) / Cmax / Tmax: plasma; for AUC(0-t): 0-4 h, read-out: AUC0-4h; for Cmax: read-out: Cmax; for Tmax: read-out: Tmax
Description: Healthy male CD1 mice were used as experimental animals. The drug was administered by oral gavage at a dose of 10 mg/kg with a dosing volume of 10 mL/kg. Drug preparation: 10 mg of the compound was placed in 10 mL of 50% PEG400 or 20% HPb-cyclodextrin, ground and shaken to ensure uniform distribution of the compound in small particle size, followed by oral administration. Blood samples were collected at 30 min, 1 h, 2 h, and 4 h post-dose, and brain tissues were sampled at 4 h. EDTA dipotassium salt was added to the blood samples, and plasma was obtained after centrifugation. The supernatant was analyzed after dilution with 5 volumes of acetonitrile and centrifugation. The brain tissue homogenate was diluted with 3.5 volumes of acetonitrile, centrifuged, and the supernatant was collected for analysis. The samples were then analyzed by liquid chromatography-tandem mass spectrometry (LC-MS/MS): the instrument was AB Sciex 3500; the mobile phase consisted of 0.1% formic acid in water (A)/0.1% formic acid in acetonitrile (B), with gradient elution.

[3] = brain tissue at 4 h, read-out: Cbrain@4h
[4] = plasma at 4 h, read-out: Cpasma@4h

SMILES | Microtubule-Stabilizing Activity 50 nM [1] | Microtubule-Stabilizing Activity 500 nM [1] | also measured
C[C@H](Nc1c(-c2c(F)cc(C#CC3[C@H]4CN(C)C[C@@H]34)cc2F)c(Cl)nc2ncnn12)C(F)(F)F (stereo partly drawn) [Example 48, 5-Chloro-6-(2,6-difluoro-4-(((1R,5S,6s)-3-methyl-3-azabicyclo[3.1.0]hexan-6-yl)ethynyl)phenyl)-N—((S)-1,1,1-trifluoropropan-2-yl)-[1,2,4]triazolo[1,5-a]pyrimidin-7-amine] | 1.42 | 1.66 | Kp at 4 h [2]: 2.83; concentration at 4 h [2, 3]: 1020 ng/mL; concentration at 4 h [2, 4]: 359 ng/mL; AUC(0-t) [2]: 1810 ng·h/mL; Cmax [2]: 591 ng/mL; Tmax [2]: 45 min
CNC1CC2(C1)CC(Oc1cc(F)c(-c3c(Cl)nc4ncnn4c3N[C@@H](C)C(F)(F)F)c(F)c1)C2 (stereo partly drawn) [Example 11, (S)-5-Chloro-6-(2,6-difluoro-4-((6-(methylamino)spiro[3.3]heptan-2-yl)oxy)phenyl)-N-(1,1,1-trifluoropropan-2-yl)-[1,2,4]triazolo[1,5-a]pyrimidin-7-amine] | 0.60 | 1.45 | Kp at 4 h [2]: 0.11; concentration at 4 h [2, 3]: 252 ng/mL; concentration at 4 h [2, 4]: 2200 ng/mL; AUC(0-t) [2]: 11200 ng·h/mL; Cmax [2]: 4140 ng/mL; Tmax [2]: 45 min
CN1C[C@@H]2C(C#Cc3cc(F)c(-c4c(Cl)nc5ncnn5c4NCC(F)(F)F)c(F)c3)[C@@H]2C1 (stereo partly drawn) [Example 50, 5-Chloro-6-(2,6-difluoro-4-(((1R,5S,6s)-3-methyl-3-azabicyclo[3.1.0]hexan-6-yl)ethynyl)phenyl)-N-(2,2,2-trifluoroethyl)-[1,2,4]triazolo[1,5-a]pyrimidin-7-amine] | 2.0 | 2.78 | –
CC(C)[C@@H](C)Nc1c(-c2c(F)cc(/C=C/[C@@H]3[C@H]4CNC[C@@H]34)cc2F)c(Cl)nc2ncnn12.Cl [Example 51, 6-(4-((E)-2-((1R,5S,6s)-3-Azabicyclo[3.1.0]hexan-6-yl)vinyl)-2,6-difluorophenyl)-5-chloro-N—((R)-3-methylbutan-2-yl)-[1,2,4]triazolo[1,5-a]pyrimidin-7-amine hydrochloride] | – | 1.85 | –
C[C@H](Nc1c(-c2c(F)cc(C#C[C@@H]3[C@H]4CNC[C@@H]34)cc2F)c(Cl)nc2ncnn12)C(F)(F)F.Cl [Example 47] | 1.23 | 1.38 | –
CNC1CC2(C1)CC(Oc1cc(F)c(-c3c(Cl)nc4ncnn4c3N[C@H](C)C3CCC3)c(F)c1)C2 (stereo partly drawn) [Example 13, (R)-5-chloro-N-(1-cyclobutylethyl)-6-(2,6-difluoro-4-((6-(methylamino)spiro[3.3]heptan-2-yl)oxy)phenyl)-[1,2,4]triazolo[1,5-a]pyrimidin-7-amine] | 0.35 | 1.39 | –
C[C@H](Nc1c(-c2c(F)cc(O[C@@H]3C[C@H]4CNC[C@H]4C3)cc2F)c(Cl)nc2ncnn12)C(F)(F)F [Example 42, 5-Chloro-6-(2,6-difluoro-4-(((3aR,5s,6aS)-octahydrocyclopenta[c]pyrrol-5-yl)oxy)phenyl)-N—((S)-1,1,1-trifluoropropan-2-yl)-[1,2,4]triazolo[1,5-a]pyrimidin-7-amine] | 0.25 | 0.73 | –
CNC1CCC2(CC1)CC(Oc1cc(F)c(-c3c(Cl)nc4ncnn4c3N[C@@H](C)C(F)(F)F)c(F)c1)C2 (stereo partly drawn) [Example 19, (S)-5-Chloro-6-(2,6-difluoro-4-((7-(methylamino)spiro[3.5]nonan-2-yl)oxy)phenyl)-N-(1,1,1-trifluoropropan-2-yl)-[1,2,4]triazolo[1,5-a]pyrimidin-7-amine] | 0.16 | 0.62 | –
C[C@H](Nc1c(-c2c(F)cc(/C=C/[C@@H]3[C@H]4CNC[C@@H]34)cc2F)c(Cl)nc2ncnn12)C(F)(F)F.Cl [Example 53, 6-(4-((E)-2-((1R,5S,6s)-3-Azabicyclo[3.1.0]hexan-6-yl)vinyl)-2,6-difluorophenyl)-5-chloro-N—((S)-1,1,1-trifluoropropan-2-yl)-[1,2,4]triazolo[1,5-a]pyrimidin-7-amine hydrochloride] | 1.23 | 1.38 | –
C[C@H](Nc1c(-c2c(F)cc(O[C@@H]3C[C@@H]4CN(C)C[C@@H]4C3)cc2F)c(Cl)nc2ncnn12)C(F)(F)F [Example 39, 5-Chloro-6-(2,6-difluoro-4-(((3aR,5r,6aS)-2-methyloctahydrocyclopenta[c]pyrrol-5-yl)oxy)phenyl)-N—((S)-1,1,1-trifluoropropan-2-yl)-[1,2,4]triazolo[1,5-a]pyrimidin-7-amine] | 0.29 | 0.45 | –
CC(C)[C@@H](C)Nc1c(-c2c(F)cc(OC[C@H]3[C@H]4CN(C)C[C@@H]34)cc2F)c(Cl)nc2ncnn12 [Example 30, 5-Chloro-6-(2,6-difluoro-4-(((1R,5S,6s)-3-methyl-3-azabicyclo[3.1.0]hex-6-yl)methoxy)phenyl)-N—((R)-3-methylbutan-2-yl)-[1,2,4]triazolo[1,5-a]pyrimidin-7-amine] | 0.09 | 0.97 | –
CC(C)[C@@H](C)Nc1c(-c2c(F)cc(OC3CC4(CNC4)C3)cc2F)c(Cl)nc2ncnn12 [Example 1, (R)-6-(4-((2-azaspiro[3.3]hept-6-yl)oxy)-2,6-difluorophenyl)-5-chloro-N-(3-methylbut-2-yl)-[1,2,4]triazolo[1,5-a]pyrimidin-7-amine] | 0.36 | 0.71 | –
CNC1CC2(C1)CC(Oc1cc(F)c(-c3c(Cl)nc4ncnn4c3N[C@H](C)C(C)C)c(F)c1)C2 (stereo partly drawn) [Example 9, (R)-5-Chloro-6-(2,6-difluoro-4-((6-(methylamino)spiro[3.3]heptan-2-yl)oxy)phenyl)-N-(3-methylbutan-2-yl)-[1,2,4]triazolo[1,5-a]pyrimidin-7-amine] | 0.53 | 1.74 | –
CNC1CC2(C1)CC(Oc1cc(F)c(-c3c(Cl)nc4ncnn4c3NCC(F)(F)F)c(F)c1)C2 (centres unmarked) [Example 15, 5-Chloro-6-(2,6-difluoro-4-((6-(methylamino)spiro[3.3]heptan-2-yl)oxy)phenyl)-N-(2,2,2-trifluoroethyl)-[1,2,4]triazolo[1,5-a]pyrimidin-7-amine] | 0.15 | 1.60 | –
CC(C)[C@@H](C)Nc1c(-c2c(F)cc(OCC3[C@H]4CNC[C@@H]34)cc2F)c(Cl)nc2ncnn12 (stereo partly drawn) [Example 21, 6-(4-(((1R,5S,6r)-3-Azabicyclo[3.1.0]hexan-6-yl)methoxy)-2,6-difluorophenyl)-5-chloro-N—((R)-3-methylbutan-2-yl)-[1,2,4]triazolo[1,5-a]pyrimidin-7-amine] | 1.27 | 1.60 | –
